In US20110162092A1, “COMPOSITION COMPRISED OF AKAP12 AND USES OF AKAP12 MUTANT ZEBRAFISH AS AN ANIMAL MODEL” (SNU RDB FOUNDATION, priority 2008, published 2011):

What was measured:
[1] = tested on: vein endothelial cells of the AKAP12 knockdown zebrafish; test: Movement of vein endothelial cells of AKAP12 knockdown zebrafish treated with RhoA signal inhibitor; type: in vivo; conditions: 200 uM, 44 hours after fertilization
[2] = tested on: Human Umbilical Vein Endothelial Cells (HUVEC); test: In vitro permeability assay using HUVEC (RITC-labeled dextran, transwell); type: cell-based; conditions: AKAP12 siRNA group treated with ROCKOUT, 15 minutes incubation
ve-cadherin = ve-cadherin expression in HUVEC by western-blotting and immunocytochemistry; type: cell-based, human; conditions: treated with both siRNA regarding AKAP12 and ROCKOUT
Method: To be specific, in the western-blotting, first, cells were dissolved in lysis buffer containing 10 mM HEPES (pH 7.9), 400 mM NaCl, 0.1 mM EDTA, 5% glycerol, 1 mM DTT (D1-dithiothreitol) and protease inhibitor cocktail, and the proteins in cells were quantified using BCA. From the whole cell lysate prepared as explained above, the proteins in cells were isolated according to molecular weight sizes using sodium dodecyl sulfate-polyacrylamide gel electrophoresis, and the proteins were moved to the polyvinyldifluoride membrane (Millipore). After that, blocking was performed, and the primary antibody was treated overnight (for 16 hours) at 4° C. On the next day, secondary antibodies regarding the primary antibodies were treated at room temperature for 2 hours, respectively, and detected using ECL PLUS (Amersham). As for the primary antibodies, VE-cadherin (Santa Cruz Biotechnology); F-actin (Sigma) were used.
As for the immunochemistry, first, cells were seeded in a 0.1% gelatin-coated slide, rinsed with cold PBS, and fixed for 10 minutes at room temperature with 4% paraformaldehyde. After that, the cells were rinsed again three times with PBS, treated with 0.5% Triton X-100 for 5 minutes, rinsed with PBS-T and underwent blocking at room temperature for 30 minutes with 0.1% blocking solution (Roche). […]

[3] = tested on: zebrafish AKAP12 alpha form mRNA; test: Genetic defect (phenotype) of zebrafish after microinjecting morpholino, alpha form; type: in vivo
From the text: (§1) The present inventors prepared morpholino for the zebrafish AKAP12 alpha form mRNA and zebrafish AKAP12 beta form mRNA knockdown. The preparation of the morpholino was ordered to Gene Tools LLC. The method for morpholino preparation is written in Summerton, J. et al., Anti sense & Nucleic Acid Drug Development 7: 187-95, 1997. The prepared morpholino was so prepared to block the characteristic variant regions of each of the alpha and beta forms from binding to the site of splicing and thus block splicing and developing into mature mRNA, in which the alpha form morpholino was so designed to bind adjacent to 339th base of the AKAP12 alpha form as the sequence of […] (SEQ. ID. NO. 7) 25-mer, and the beta form morpholino was so designed to bind adjacent to the 227th base of the AKAP12 beta form as the sequence of […] (SEQ. ID. NO. 8) 25-mer (see FIG. 1).
(§2) The present invention knocked down zebrafish AKAP12 mRNA by microinjecting the prepared morpholino of <Example 3> into the zebrafish and observed the phenotype.
(§3) First, the inventors microinjected 7 ng and 10 ng of morpholino for AKAP12 mRNA alpha form, and microinjected 7.5 ng of morpholino for AKAP12 mRNA beta form.
(§4) Further, after injecting 3.7 ng, 7.5 ng and 10 ng of morpholino for zebrafish AKAP12 alpha and beta forms, the present inventors could confirm that the genetic defect appears in the beta form at about 7.5 ng and alpha form at about 3.7 ng (see FIG. 4).

[4] = tested on: zebrafish AKAP12 alpha form; test: Micro-vasculature defect in brains of AKAP12 alpha form knockdown tg(fli:egfp) zebrafish; type: in vivo; conditions: 3 ng morpholino; 10 kDa tetramethylrhodamine-dextran after 3 days
Method: The present inventor knocked down the zebrafish AKAP12 alpha form using the transgenic zebrafish ‘tg(fli:egfp)’ in which green fluoresces selectively in the vein endothelial cells, and observed the defect pattern of the micro-vasculatures in brains. To be specific, the inventors knocked down the zebrafish AKAP12 alpha form by microinjecting 3 ng of morpholino for zebrafish AKAP12 alpha form into the transgenic zebrafish (fli:egfp) embryos, and then after 3 days, microinjected 25 mg/ml of red-fluorescent lysine-fixable tetramethylrhodamine-dextran, 10 kDa through the common cardinal vein of the zebrafish, and then observed through the LSM 510 META NLO confocal microscope (Carl Zeiss, Germany).

[5] = tested on: zebrafish AKAP12 alpha form; test: Vessel defects of AKAP12 knockdown tg(fli:egfp) zebrafish; type: in vivo; conditions: 2 ng morpholino; 2000 kDa tetramethylrhodamine-dextran within 48 to 60 hours
Method: The present inventors knocked down the zebrafish AKAP12 alpha and beta forms using the transgenic zebrafish ‘tg(fli:egfp)’ in which green fluoresces selectively in the endothelioyte of the vessels, and observed the defect pattern in the vessels. To be specific, the inventors knocked down the zebrafish AKAP12 alpha and beta forms by microinjecting 2 ng alpha) and 7.5 ng (beta) of morpholino for zebrafish KAAP12 alpha and beta forms, into the transgenic zebrafish ‘fli:egfp’, respectively, and within 48 to 60 hours, microinjected 25 mg/ml of red-fluorescent lysine-fixable tetramethylrhodamine-dextran, 2000 kDa (molecular probes) and observed through the LSM 510 META NLO confocal microscope (Carl Zeiss, Germany).

[6] = tested on: zebrafish AKAP12 alpha form; test: Heart defect of AKAP12 alpha form knockdown tg(cmlc:egfp) zebrafish; type: in vivo; conditions: 3.7 ng morpholino, 1.5 days later
Method: The present inventors knocked down zebrafish AKAP12 alpha form using the transgenic zebrafish ‘tg(cmlc:egfp)’ in which green fluoresces characteristically to the light chain of the heat muscles, and observed the heart defects of the zebrafish. That is, the inventors knocked down the zebrafish AKAP12 alpha form by microinjecting 3.7 ng of morpholino for zebrafish AKAP12 alpha form into the transgenic zebrafish (‘tg(cmlc:egfp)’) embryos, and observed the hearts of the zebrafish after 1.5 days later using the LSM 510 META NLO confocal microscope Carl Zeiss, Germany).

[7] = tested on: zebrafish AKAP12 alpha form; test: Hemorrhage of AKAP12 alpha form knockdown zebrafish; type: in vivo
From the text: (§5) The present inventors observed the embryos of […] AKAP12 alpha and beta form knockdown zebrafish, and as a result, could observe the bleeding in the 2 to 3 day-old zebrafish.

AKAP12 alpha form mRNA = test: Zebrafish defect patterns in accordance with morpholino amount, alpha form; type: in vivo
From the text: (§6) The present inventors knocked down AKAP12 alpha form mRNA and beta form mRNA using morpholino for zebrafish AKAP12 alpha and beta forms, and observed the defect patterns in accordance with the amounts of morpholino, respectively.

[8] = tested on: zebrafish AKAP12 beta form mRNA; test: Genetic defect (phenotype) of zebrafish after microinjecting morpholino, beta form; type: in vivo
From the text: as §1, §2, §3, §4

[9] = tested on: zebrafish AKAP12 beta form; test: Hemorrhage of AKAP12 beta form knockdown zebrafish; type: in vivo; conditions: 7.5 ng injected, day 3
From the text: as §5

AKAP12 beta form mRNA = test: Zebrafish defect patterns in accordance with morpholino amount, beta form; type: in vivo
From the text: as §6

[10] = morpholino only, control group of rescue test

c1ccc2c(-c3ccncc3)c[nH]c2c1 [ROCKOUT]
movement of vein endothelial cells [1]: the excessive movement of the vein endothelial cells slowed | RITC permeability [2]: decreased permeability | expression of ve-cadherin (ve-cadherin): the expression of ve-cadherin increased back

morpholino for zebrafish AKAP12 alpha form: 25-mer morpholino TCTTACCTGTTAGAGTTATTGTCCC (SEQ. ID. NO. 7), binds adjacent to 339th base of AKAP12 alpha form, blocks splicing (all phosphorodiamidate morpholino (PMO))
mRNA expression pattern of AKAP12 alpha form by RT-PCR ([3]; 7 ng and 10 ng injected, by degree of defect): the zebrafish with severer degree of defects had lower degree of mRNA expression | phenotype: tail portions and mobility ([3]; 7 ng and 10 ng microinjected): crooked or shortened tail portions and abnormal mobility | defect patterns [3, 10]: crooked trunks and bleeding | defect patterns ([3]; only 4 ng morpholino, control group of rat mRNA rescue): defect patterns including crooked and shortened tail and deformed hearts | defect pattern of micro-vasculatures in brains, dextran distribution [4]: non-uniform micro-vasculature in brains and also the red lysine-fixable tetramethylrhodamine-dextran was distributed around the green micro-vasculatures | defect pattern in the vessels, dextran leakage [5]: non-uniform micro-vasculature in the brains and also the red lysine-fixable tetramethylrhodamine-dextran leaked out of the green vessel | heart shape (atriums and ventricles) [6]: elongated atriums and ventricles | heartbeats [6]: non-uniform and weak heartbeats | rate of zebrafish showing hemorrhage ([7]; 3 ng injected, day 3): approximately 50% | rate of zebrafish with hemorrhage versus amount ([7]; 1, 2 and 3 ng in sequence): hemorrhage increased as the amount of injected morpholino increased | defect pattern (AKAP12 alpha form mRNA; 1 ng and 2 ng): bleeding only | defect pattern (AKAP12 alpha form mRNA; 4 ng and more): decreasing bleeding due to severe defects of hearts and other veins | defect pattern (AKAP12 alpha form mRNA; 3 and 4 ng): both the bleeding and defects in heart and trunk veins

morpholino for zebrafish AKAP12 beta form: 25-mer morpholino TACCTTGCCATCTGCGGTTTCTCCA (SEQ. ID. NO. 8), binds adjacent to 227th base of AKAP12 beta form, blocks splicing (all phosphorodiamidate morpholino (PMO))
amount of morpholino at which the genetic defect appears ([8]; 3.7 ng, 7.5 ng and 10 ng injected): about 7.5 ng | phenotype: tail portions and mobility ([8]; 7.5 ng microinjected): crooked or shortened tail portions and abnormal mobility | defect patterns [8, 10]: crooked trunks and bleeding | rate of zebrafish showing hemorrhage [9]: approximately 27% | defect pattern (AKAP12 beta form mRNA; 7.5 ng and 8 ng): both the bleeding and defects of heat and trunk veins concurrently | defect pattern (AKAP12 beta form mRNA; 9 ng or more): only the defects in heart and trunk veins
